Data as given in patent US10906916B2, “Thienopyrimidinones as ubiquitin-specific protease 7 inhibitors” (Valo Early Discovery, Inc., priority 2015, dated 2021).

Biological target: T1, USP7 (construct USP7 (208-1102) 6*His) (Homo sapiens, UniProt Q93009)
T1 construct: USP7, construct USP7 (208-1102) 6*His, Viva Biotech; 6xHis; purchased Viva Biotech
Assay: USP7 Assay (Ubiquitin-Rhodamine110 Assay)
Assay type: biochemical
Settings: Ub-Rh110 substrate 25 nM, enzyme 62.5 pM, 30 min preincubation; read-out: USP7_IC50
Description: Each assay was performed in a final volume of 15 μL in assay buffer containing 20 mM Tris-HCl (pH 8.0, (1M Tris-HCl, pH 8.0 solution; Corning 46-031-CM)), 1 mM GSH (L-Glutathione reduced; Sigma #G4251), 0.03% BGG (0.22 μM filtered, Sigma, #G7516-25G), and 0.01% Triton X-100 (Sigma, #T9284-10L). Nanoliter quantities of either an 8-point or 10-point, 3-fold serial dilution in DMSO was pre-dispensed into assay plates (Perkin Elmer, ProxiPlate-384 F Plus, #6008269) for a final test concentration range of either 25 μM to 11 nM or 25 μM to 1.3 nM, respectively. The final concentration of the enzyme (USP7, construct USP7 (208-1102) 6*His, Viva Biotech) in the assay was 62.5 pM. Final substrate (Ub-Rh110; Ubiquitin-Rhodamine 110, R&D Systems #U-555) concentration was 25 nM with [Ub-Rh110]<<Km. 5 μL of 2× enzyme was added to assay plates (pre-stamped with compound) preincubated with USP7 for 30 min and then 5 μL of 2× Ub-Rh110 was added to assay plates. Plates were incubated stacked for 20 min at room temperature before addition of 5 μL, of stop solution (final concentration of 1.0 mM citric acid in assay buffer (Sigma, #251275-500G)). Fluorescence was read on the Envision (Excitation at 485 nm and Emission at 535 nm; Perkin Elmer) or on the PheraSTAR (Excitation at 485 nm and Emission at 535 nm; BMG Labtech).
Data from USP7 Assay was reported as percent inhibition (inh) compared with control wells based on the following equation: % inh=1−((FLU−AveLow)/(AveHigh−AveLow)) where FLU=measured Fluorescence; AveLow=average Fluorescence of no enzyme control (n=16); and AveHigh=average Fluorescence of DMSO control (n=16). IC50 values were determined by curve fitting of the standard 4 parameter logistic fitting algorithm included in the Activity Base software package: IDBS XE Designer Model205. Data is fitted using the Levenburg Marquardt algorithm.

T1 sequence (Q93009 208-1102): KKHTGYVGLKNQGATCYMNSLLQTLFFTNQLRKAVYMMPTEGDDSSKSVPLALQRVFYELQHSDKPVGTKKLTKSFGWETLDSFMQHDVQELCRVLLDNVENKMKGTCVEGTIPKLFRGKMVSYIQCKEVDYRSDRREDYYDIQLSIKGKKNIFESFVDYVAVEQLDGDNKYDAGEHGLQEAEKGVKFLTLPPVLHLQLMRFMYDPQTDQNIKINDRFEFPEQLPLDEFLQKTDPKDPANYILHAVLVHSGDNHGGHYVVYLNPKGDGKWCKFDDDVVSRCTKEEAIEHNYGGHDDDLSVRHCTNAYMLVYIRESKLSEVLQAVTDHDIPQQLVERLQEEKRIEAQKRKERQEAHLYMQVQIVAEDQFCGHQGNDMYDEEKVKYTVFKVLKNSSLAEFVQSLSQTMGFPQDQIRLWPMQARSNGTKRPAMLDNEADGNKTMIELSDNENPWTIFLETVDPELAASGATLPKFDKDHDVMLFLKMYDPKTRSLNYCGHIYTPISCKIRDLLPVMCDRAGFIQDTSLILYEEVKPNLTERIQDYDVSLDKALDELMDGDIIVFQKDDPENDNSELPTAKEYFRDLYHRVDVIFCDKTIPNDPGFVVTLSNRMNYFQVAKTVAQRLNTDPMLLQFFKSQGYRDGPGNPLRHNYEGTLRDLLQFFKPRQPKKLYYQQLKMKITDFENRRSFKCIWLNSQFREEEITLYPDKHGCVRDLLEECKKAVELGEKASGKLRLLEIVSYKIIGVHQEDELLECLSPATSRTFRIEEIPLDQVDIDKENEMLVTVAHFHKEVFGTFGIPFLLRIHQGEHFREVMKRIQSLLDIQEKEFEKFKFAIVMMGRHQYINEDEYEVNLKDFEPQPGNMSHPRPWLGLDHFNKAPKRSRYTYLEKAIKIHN

Row | SMILES | IC50 [nM]
1 | CC(CC(=O)N1CCC(O)(Cn2cnc3sccc3c2=O)CC1)c1ccccc1 (stereo not drawn) [Compound I-1, 3-((4-hydroxy-1-(3-phenylbutanoyl)piperidin-4-yl)methyl)thieno[2,3-d]pyrimidin-4(3H)-one] | 300 to 1000
2 | CC(CC(=O)N1CCC(O)(Cn2cnc3sc4c(c3c2=O)CCCC4)CC1)c1ccccc1 (stereo not drawn) [Compound I-2, 3-((4-hydroxy-1-(3-phenylbutanoyl)piperidin-4-yl)methyl)-5,6,7,8-tetrahydrobenzo[4,5]thieno[2,3-d]pyrimidin-4(3H)-one] | > 10000
3 | CC(CC(=O)N1CCC(O)(Cn2cnc3sc4c(c3c2=O)CCC4)CC1)c1ccccc1 (stereo not drawn) [Compound I-3, 3-((4-hydroxy-1-(3-phenylbutanoyl)piperidin-4-yl)methyl)-3,5,6,7-tetrahydro-4H-cyclopenta[4,5]thieno[2,3-d]pyrimidin-4-one] | 1000 to 10000
4 | CCCc1cc2c(=O)n(CC3(O)CCN(C(=O)CC(C)c4ccccc4)CC3)cnc2s1 (stereo not drawn) [Compound I-4, 3-((4-hydroxy-1-(3-phenylbutanoyl)piperidin-4-yl)methyl)-6-propylthieno[2,3-d]pyrimidin-4(3H)-one] | 300 to 1000
5 | CCC(CC(=O)N1CCC(O)(Cn2cnc3sccc3c2=O)CC1)c1ccccc1 (stereo not drawn) [Compound I-5, 3-((4-hydroxy-1-(3-phenylpentanoyl)piperidin-4-yl)methyl)thieno[2,3-d]pyrimidin-4(3H)-one] | 1000 to 10000
6 | Cc1cc2c(=O)n(CC3(O)CCN(C(=O)CC(C)c4ccccc4)CC3)cnc2s1 (stereo not drawn) [Compound I-6, 3-((4-hydroxy-1-(3-phenylbutanoyl)piperidin-4-yl)methyl)-6-methylthieno[2,3-d]pyrimidin-4(3H)-one] | < 300
7 | CCc1cc2c(=O)n(CC3(O)CCN(C(=O)CC(C)c4ccccc4)CC3)cnc2s1 (stereo not drawn) [Compound I-7, 6-ethyl-3-((4-hydroxy-1-(3-phenylbutanoyl)piperidin-4-yl)methyl)thieno[2,3-d]pyrimidin-4(3H)-one] | < 300
8 | Cc1sc2ncn(CC3(O)CCN(C(=O)CC(C)c4ccccc4)CC3)c(=O)c2c1C (stereo not drawn) [Compound I-8, 3-((4-hydroxy-1-(3-phenylbutanoyl)piperidin-4-yl)methyl)-5,6-dimethylthieno[2,3-d]pyrimidin-4(3H)-one] | > 10000
9 | COc1ccc(C(=O)N2CCC(O)(Cn3cnc4c(-c5ccc(F)cc5)csc4c3=O)CC2)cc1 [Compound I-9, 7-(4-fluorophenyl)-3-((4-hydroxy-1-(4-methoxybenzoyl)piperidin-4-yl)methyl)thieno[3,2-d]pyrimidin-4(3H)-one] | 1000 to 10000
10 | O=C(c1ccccc1)N1CCC(O)(Cn2cnc3c(-c4ccc(F)cc4)csc3c2=O)CC1 [Compound I-10, 3-((1-benzoyl-4-hydroxypiperidin-4-yl)methyl)-7-(4-fluorophenyl)thieno[3,2-d]pyrimidin-4(3H)-one] | 1000 to 10000
11 | CN(C)C/C=C/C(=O)NCCCCC(=O)N1CCC(O)(Cn2cnc3c(-c4ccc(F)cc4)csc3c2=O)CC1 [Compound I-11, (E)-4-(dimethylamino)-N-(5-(4-((7-(4-fluorophenyl)-4-oxothieno[3,2-d]pyrimidin-3(4H)-yl)methyl)-4-hydroxypiperidin-1-yl)-5-oxopentyl)but-2-enamide] | 1000 to 10000
12 | CN(C)C/C=C/C(=O)NCCCC(=O)N1CCC(O)(Cn2cnc3c(-c4ccc(F)cc4)csc3c2=O)CC1 [Compound I-12, (E)-4-(dimethylamino)-N-(4-(4-((7-(4-fluorophenyl)-4-oxothieno[3,2-d]pyrimidin-3(4H)-yl)methyl)-4-hydroxypiperidin-1-yl)-4-oxobutyl)but-2-enamide] | 1000 to 10000
